Reference: article PMC4774911, “Biochemical Screening of Five Protein Kinases from Plasmodium falciparum against 14,000 Cell-Active Compounds” (PLoS ONE, 2016)
Several values for one entry are separate records, joined by “and”; a condition that tells them apart may be missing. Identical values can stand only once.

Legend:
Assay in all cases: biochemical
ACVR1 = biological target: T1, ACVR1 (Homo sapiens, UniProt Q04771)
T1 sequence (Q04771 1-509): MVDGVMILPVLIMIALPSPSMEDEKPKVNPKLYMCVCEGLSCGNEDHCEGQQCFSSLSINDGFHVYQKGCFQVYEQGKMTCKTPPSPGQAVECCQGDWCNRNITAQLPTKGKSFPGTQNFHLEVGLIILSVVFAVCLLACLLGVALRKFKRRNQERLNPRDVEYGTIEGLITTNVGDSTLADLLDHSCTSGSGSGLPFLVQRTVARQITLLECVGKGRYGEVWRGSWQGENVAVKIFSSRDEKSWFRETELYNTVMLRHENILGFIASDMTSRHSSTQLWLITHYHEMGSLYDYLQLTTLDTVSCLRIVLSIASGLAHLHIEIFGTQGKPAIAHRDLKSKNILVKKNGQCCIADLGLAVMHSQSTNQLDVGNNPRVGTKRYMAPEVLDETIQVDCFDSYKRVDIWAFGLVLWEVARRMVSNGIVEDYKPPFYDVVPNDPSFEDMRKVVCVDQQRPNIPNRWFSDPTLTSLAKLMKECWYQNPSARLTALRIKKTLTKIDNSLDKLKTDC

CDK2 = CDK2 (Homo sapiens, UniProt P24941)
CHUK = biological target: T2, CHUK (Homo sapiens, UniProt O15111)
T2 sequence (O15111 1-745): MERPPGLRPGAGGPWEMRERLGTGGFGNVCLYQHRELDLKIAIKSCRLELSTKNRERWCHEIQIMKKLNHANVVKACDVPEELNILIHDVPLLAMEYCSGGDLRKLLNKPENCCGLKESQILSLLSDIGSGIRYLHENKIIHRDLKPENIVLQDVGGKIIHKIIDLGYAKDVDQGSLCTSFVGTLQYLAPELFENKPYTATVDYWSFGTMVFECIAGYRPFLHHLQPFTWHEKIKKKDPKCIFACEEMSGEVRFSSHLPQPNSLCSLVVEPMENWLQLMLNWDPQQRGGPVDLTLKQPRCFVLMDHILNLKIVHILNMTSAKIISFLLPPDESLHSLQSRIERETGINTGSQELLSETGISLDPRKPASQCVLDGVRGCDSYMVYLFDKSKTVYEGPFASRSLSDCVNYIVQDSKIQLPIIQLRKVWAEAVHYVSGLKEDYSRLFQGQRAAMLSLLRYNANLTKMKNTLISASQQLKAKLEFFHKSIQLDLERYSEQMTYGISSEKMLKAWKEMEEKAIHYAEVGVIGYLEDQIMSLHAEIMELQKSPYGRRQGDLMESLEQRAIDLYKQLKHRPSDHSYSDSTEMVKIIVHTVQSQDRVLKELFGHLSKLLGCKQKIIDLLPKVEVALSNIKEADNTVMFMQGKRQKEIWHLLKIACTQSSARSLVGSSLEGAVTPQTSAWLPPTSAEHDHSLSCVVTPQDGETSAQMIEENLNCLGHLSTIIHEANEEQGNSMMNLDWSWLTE

CIT = CIT (Homo sapiens, UniProt O14578)
CIT, sequence (O14578 whole entry): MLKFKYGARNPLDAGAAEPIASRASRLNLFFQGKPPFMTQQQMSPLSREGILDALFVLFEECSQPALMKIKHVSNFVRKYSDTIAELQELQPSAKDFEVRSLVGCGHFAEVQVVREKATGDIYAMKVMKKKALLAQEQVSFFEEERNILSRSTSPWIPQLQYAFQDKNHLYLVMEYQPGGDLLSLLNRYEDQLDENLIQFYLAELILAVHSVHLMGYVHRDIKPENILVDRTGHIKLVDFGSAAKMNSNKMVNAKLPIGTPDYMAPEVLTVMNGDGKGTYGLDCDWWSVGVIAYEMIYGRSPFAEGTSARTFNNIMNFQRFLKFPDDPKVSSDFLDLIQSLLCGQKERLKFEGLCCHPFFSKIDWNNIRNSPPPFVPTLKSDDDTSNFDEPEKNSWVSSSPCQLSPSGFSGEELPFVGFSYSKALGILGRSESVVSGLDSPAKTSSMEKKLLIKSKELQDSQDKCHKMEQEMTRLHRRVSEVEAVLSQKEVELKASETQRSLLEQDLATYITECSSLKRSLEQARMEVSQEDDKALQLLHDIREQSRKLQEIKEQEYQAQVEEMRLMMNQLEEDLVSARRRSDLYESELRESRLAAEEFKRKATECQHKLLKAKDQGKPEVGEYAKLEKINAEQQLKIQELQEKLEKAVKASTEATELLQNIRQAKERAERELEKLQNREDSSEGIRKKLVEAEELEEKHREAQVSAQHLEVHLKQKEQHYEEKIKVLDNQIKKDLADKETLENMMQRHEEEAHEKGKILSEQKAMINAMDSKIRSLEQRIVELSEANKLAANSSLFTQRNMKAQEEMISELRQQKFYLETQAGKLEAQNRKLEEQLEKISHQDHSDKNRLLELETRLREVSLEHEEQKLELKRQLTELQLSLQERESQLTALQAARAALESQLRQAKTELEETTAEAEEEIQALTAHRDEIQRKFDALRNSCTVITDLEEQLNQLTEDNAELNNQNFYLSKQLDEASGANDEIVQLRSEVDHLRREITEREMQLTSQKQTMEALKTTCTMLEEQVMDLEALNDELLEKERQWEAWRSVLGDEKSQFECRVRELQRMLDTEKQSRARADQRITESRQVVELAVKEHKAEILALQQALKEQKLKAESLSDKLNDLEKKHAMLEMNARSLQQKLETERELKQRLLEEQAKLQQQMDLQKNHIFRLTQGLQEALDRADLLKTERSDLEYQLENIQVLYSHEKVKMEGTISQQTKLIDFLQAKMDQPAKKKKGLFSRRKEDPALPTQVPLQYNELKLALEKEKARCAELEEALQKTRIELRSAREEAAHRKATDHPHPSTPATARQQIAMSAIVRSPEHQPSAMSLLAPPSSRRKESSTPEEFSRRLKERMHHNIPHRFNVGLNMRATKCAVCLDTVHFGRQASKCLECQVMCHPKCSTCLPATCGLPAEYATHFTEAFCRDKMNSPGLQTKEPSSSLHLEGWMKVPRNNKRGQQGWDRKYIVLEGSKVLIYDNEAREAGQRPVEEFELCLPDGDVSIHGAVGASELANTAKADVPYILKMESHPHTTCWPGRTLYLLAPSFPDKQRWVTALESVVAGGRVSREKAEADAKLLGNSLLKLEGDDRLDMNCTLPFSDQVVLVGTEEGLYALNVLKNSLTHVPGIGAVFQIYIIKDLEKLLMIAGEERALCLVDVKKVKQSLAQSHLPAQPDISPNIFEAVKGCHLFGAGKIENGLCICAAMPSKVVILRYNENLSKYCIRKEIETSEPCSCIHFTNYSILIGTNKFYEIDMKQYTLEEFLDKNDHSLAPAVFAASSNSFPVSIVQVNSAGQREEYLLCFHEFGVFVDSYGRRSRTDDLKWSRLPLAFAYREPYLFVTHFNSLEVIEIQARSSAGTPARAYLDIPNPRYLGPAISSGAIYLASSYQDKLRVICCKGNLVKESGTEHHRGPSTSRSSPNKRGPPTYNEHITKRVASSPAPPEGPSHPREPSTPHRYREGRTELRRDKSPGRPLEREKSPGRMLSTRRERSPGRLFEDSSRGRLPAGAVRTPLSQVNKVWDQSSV

EPHB6 = biological target: T3, EPHB6 (Homo sapiens, UniProt O15197)
T3 sequence (O15197 1-1021): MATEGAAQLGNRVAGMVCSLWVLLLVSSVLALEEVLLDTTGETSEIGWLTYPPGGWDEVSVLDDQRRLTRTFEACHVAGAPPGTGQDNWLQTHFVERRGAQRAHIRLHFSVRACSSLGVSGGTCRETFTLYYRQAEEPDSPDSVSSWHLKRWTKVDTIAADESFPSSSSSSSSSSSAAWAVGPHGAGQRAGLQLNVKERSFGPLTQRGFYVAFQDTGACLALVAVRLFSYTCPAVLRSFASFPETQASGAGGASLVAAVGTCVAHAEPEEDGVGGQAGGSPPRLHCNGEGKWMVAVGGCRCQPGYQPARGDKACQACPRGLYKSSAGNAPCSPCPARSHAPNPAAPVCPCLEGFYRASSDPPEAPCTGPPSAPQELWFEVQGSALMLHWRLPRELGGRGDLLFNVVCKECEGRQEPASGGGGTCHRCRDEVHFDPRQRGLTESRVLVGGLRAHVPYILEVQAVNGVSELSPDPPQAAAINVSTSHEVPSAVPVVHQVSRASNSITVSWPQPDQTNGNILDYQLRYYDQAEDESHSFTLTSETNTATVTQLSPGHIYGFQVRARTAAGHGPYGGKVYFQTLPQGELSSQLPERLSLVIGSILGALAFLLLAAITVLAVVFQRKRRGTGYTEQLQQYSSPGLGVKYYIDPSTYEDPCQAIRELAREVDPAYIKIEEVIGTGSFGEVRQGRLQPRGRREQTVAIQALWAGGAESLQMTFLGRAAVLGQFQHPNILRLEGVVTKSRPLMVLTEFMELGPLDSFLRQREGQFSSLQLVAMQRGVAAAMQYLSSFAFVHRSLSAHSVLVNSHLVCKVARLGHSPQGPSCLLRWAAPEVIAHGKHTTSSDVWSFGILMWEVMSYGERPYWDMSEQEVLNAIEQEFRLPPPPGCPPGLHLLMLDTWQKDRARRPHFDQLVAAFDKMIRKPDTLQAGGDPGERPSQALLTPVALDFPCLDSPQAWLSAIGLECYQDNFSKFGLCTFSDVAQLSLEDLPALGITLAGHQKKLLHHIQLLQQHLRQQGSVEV

MAP2K2 = MAP2K2 (Homo sapiens, UniProt P36507)
MAP2K2, sequence (P36507 whole entry): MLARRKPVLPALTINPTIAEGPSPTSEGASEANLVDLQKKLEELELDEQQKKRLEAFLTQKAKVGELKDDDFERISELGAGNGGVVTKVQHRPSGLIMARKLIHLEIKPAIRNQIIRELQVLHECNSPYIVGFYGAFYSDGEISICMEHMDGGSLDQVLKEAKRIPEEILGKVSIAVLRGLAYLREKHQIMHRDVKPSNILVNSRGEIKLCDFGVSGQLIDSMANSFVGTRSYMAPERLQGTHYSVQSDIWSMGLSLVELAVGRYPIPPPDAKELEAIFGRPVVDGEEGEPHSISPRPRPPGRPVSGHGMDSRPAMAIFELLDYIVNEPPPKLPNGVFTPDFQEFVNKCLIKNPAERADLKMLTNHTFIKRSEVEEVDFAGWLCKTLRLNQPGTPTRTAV

MARK2 = MARK2 (Homo sapiens, UniProt Q7KZI7)
MARK2, sequence (Q7KZI7 whole entry): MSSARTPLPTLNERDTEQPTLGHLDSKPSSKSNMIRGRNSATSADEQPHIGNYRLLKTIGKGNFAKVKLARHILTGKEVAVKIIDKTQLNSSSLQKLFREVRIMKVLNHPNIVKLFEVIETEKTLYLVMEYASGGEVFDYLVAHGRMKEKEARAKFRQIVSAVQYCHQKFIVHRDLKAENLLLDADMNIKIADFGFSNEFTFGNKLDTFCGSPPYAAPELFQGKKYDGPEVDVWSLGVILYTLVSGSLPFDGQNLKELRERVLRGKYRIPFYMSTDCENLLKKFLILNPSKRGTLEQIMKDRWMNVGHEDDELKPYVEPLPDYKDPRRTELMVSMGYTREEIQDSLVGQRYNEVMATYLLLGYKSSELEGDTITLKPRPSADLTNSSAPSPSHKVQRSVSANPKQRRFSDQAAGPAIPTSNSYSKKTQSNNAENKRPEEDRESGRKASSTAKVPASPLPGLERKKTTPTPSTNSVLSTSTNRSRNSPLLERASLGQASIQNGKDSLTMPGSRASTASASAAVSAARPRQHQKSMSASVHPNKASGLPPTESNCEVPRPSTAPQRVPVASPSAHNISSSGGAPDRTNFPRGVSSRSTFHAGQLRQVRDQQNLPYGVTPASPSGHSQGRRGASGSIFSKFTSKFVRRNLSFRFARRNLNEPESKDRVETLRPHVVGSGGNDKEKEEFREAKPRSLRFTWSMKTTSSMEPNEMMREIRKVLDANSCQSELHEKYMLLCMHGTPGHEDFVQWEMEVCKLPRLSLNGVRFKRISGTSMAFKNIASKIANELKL

STK11 = biological target: T4, STK11 (Homo sapiens, UniProt Q15831)
T4 sequence (Q15831 1-433): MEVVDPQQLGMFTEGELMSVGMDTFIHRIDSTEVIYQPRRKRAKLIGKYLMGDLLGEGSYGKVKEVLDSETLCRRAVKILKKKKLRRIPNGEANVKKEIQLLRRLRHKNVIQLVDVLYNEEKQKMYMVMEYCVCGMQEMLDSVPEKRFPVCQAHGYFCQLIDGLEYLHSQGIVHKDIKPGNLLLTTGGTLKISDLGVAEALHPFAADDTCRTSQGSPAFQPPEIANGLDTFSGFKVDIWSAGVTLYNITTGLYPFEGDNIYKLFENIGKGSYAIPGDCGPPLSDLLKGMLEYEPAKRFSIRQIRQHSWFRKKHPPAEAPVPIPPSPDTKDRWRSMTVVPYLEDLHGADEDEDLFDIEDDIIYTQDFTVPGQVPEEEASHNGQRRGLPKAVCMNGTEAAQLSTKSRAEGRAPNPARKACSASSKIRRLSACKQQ

SMILES | IC50 (ACVR1) | IC50 (CDK2) | IC50 (CHUK) | IC50 (CIT) | IC50 (EPHB6) | IC50 (MAP2K2) | IC50 (MARK2) | IC50 (STK11)
CN1CCN(c2ccc(Nc3ncc(C#N)c(Nc4ccccc4C(N)=O)n3)cc2)CC1.Cl [TCMDC-134116] | 8.2 µM | 0.36 µM and 0.35 µM | > 20 µM | 5.7 µM and 5.8 µM | > 20 µM | 0.83 µM and 0.98 µM | 0.22 µM and 0.21 µM | 1 µM
Cl.NCC1(c2nc(-c3ccc(Cl)c(O)c3)c(-c3ccncc3)[nH]2)CCCCC1 [TCMDC-141154] | > 20 µM | > 20 µM | > 20 µM | 0.16 µM and 0.28 µM | > 20 µM | 9 µM and > 20 µM | > 20 µM | 1.4 µM
CN(C)CC(O)COc1ccc(Nc2ncc([N+](=O)[O-])c(Nc3ccccc3O)n2)cc1.O=C(O)C(F)(F)F (stereo not drawn) [TCMDC-141399] | > 20 µM | > 20 µM | > 20 µM | 4.4 µM | > 20 µM | > 20 µM | 6.4 µM | 4.4 µM
